In patent US20250214977A1, “STAT6 INHIBITORS AND USES THEREOF” (Kymera Therapeutics, Inc., priority 2024, published 2025):

tested on: Phosphorylation of STAT6 in human A549 cells; experiment: Phosphorylated STAT6 (pSTAT6) flow cytometry assay in human A549 cells; format: cell-based; conditions: read-out: STAT6 IL4 pSTAT6 assay in A549 cells: Average IC50
From the text: Example 3. Phosphorylated STAT6 (pSTAT6) Flow Cytometry Assay in Human A549 Cells
Phosphorylation of STAT6 in human A549 cells was quantitatively measured using flow cytometry technology.

Compared with CCC1CCCCC1c1cc(C2=CCCN(C(=O)CCn3ccnn3)C2)c(F)c2[nH]c(C(=O)N3CCN(c4ncc(F)cc4OC)CC3)cc12 (single isomer, unassigned) [Example I-1175], COc1cc(F)cnc1N1CCN(C(=O)c2cc3c(C(F)F)cc(C4=CCCN(C(=O)CCn5ccnn5)C4)c(F)c3[nH]2)CC1 [Example I-532] is lower in IC50: 100 to 1000 nM for the first, < 100 nM for the second. The second is the more potent here.

Compared with CN(C)C(=O)c1cc2cc([C@H]3CCCN(C(=O)CCn4ccnn4)C3)ccc2o1 [Example I-830], CN(C)C(=O)c1cc2ccc([C@H]3CCCN(C(=O)CCn4ccnn4)C3)c(F)c2[nH]1 (single isomer, unassigned) [Example I-1187] is lower in IC50: 100 to 1000 nM for the first, < 100 nM for the second.

CN(C)C(=O)c1cc2ccc(C3=CCCN(C(=O)CCc4nccs4)C3)cc2[nH]1 [Example I-821] and CN(C)C(=O)c1cc2cc(C3=CCCN(C(=O)CCn4ccnn4)C3)cnc2[nH]1 [Example I-819] fall in the same range of IC50: 100 to 1000 nM for the first, 100 to 1000 nM for the second.

COc1ccccc1N1CCN(C(=O)c2cc3c(-c4cnccc4OC(C)(C)C)cc(C4=CCCN(C(=O)CCn5ccnn5)C4)c(F)c3[nH]2)CC1 [Example I-404] and COc1ccccc1N1CCN(C(=O)c2cc3c(-c4cnccc4OC(C)C)cc(C4=CCCN(C(=O)CCn5ccnn5)C4)c(F)c3[nH]2)CC1 [Example I-403] cannot be ordered by IC50: > 100000 nM for the first, > 100000 nM for the second.

CC#Cc1cc(-c2cc(C3=CCCN(C(=O)CCn4ccnn4)C3)c(F)c3[nH]c(C(=O)N4CCN(c5ncc(F)cc5OC)CC4)cc23)ccn1 [Example I-634] and COc1cc(F)cnc1N1CCN(C(=O)c2cc3c(-c4ccnc(OC(F)F)c4)cc(C4=CCCN(C(=O)CCn5ccnn5)C4)c(F)c3[nH]2)CC1 [Example I-653] cannot be ordered by IC50: < 100 nM for the first, < 100 nM for the second.

COc1cc(F)c(F)cc1-c1cc(C2=CCCN(C(=O)CCn3ccnn3)C2)c(F)c2[nH]c(C(=O)N3CCN(c4ccccc4OC)CC3)cc12 [Example I-600] and COc1ccc(F)cc1-c1cc(C2=CCCN(C(=O)CCn3ccnn3)C2)c(F)c2[nH]c(C(=O)N3CCN(c4ccccc4OC)CC3)cc12 [Example I-566] cannot be ordered by IC50: < 100 nM for the first, < 100 nM for the second.

COc1cc(F)ccc1-c1cc(C2=CCCN(C(=O)CCn3ccnn3)C2)c(F)c2[nH]c(C(=O)N3CCN(c4ncccc4OC4CC4)CC3)cc12 [Example I-594] and COc1cc(F)c(F)cc1-c1cc(C2=CCCN(C(=O)CCn3ccnn3)C2)c(F)c2[nH]c(C(=O)N3CCN(c4ncccc4OC4CC4)CC3)cc12 [Example I-596] cannot be ordered by IC50: < 100 nM for the first, < 100 nM for the second.

Compared with COc1ccccc1-c1cc(C(=O)N2CCN(c3ncc(F)cc3OC)CC2)cc2cc(C3=CCCN(C(=O)CCn4ccnn4)C3)n(CC3CC3)c12 [Example I-506], CCc1nc(C)ccc1-c1cc(C(=O)N2CCN(c3ncc(F)cc3OC)CC2)cc2cc(C3=CCCN(C(=O)CCn4ccnn4)C3)n(CC(C)C)c12 [Example I-524] is lower in IC50: 10000 to 100000 nM for the first, < 100 nM for the second. The second is the more potent here.

COc1cc(F)cnc1N1CCN(C(=O)c2cc3c(C4=COCCC4)cc(C4=CCCN(C(=O)CCn5ccnn5)C4)c(F)c3[nH]2)CC1 [Example I-1155] and COc1cc(F)cnc1N1CCN(C(=O)c2cc3c(C4=CCCOC4)cc(C4=CCCN(C(=O)CCn5ccnn5)C4)c(F)c3[nH]2)CC1 [Example I-1126] cannot be ordered by IC50: < 100 nM for the first, < 100 nM for the second.

COc1cccnc1N1CCN(C(=O)c2cc3c(C4=C(C)CCCC4)cc(C4=CCCN(C(=O)CCn5ccnn5)C4)c(F)c3[nH]2)CC1 [Example I-569] and COc1cccnc1N1CCN(C(=O)c2cc3c(-n4ccccc4=O)cc(C4=CCCN(C(=O)CCn5ccnn5)C4)c(F)c3[nH]2)CC1 [Example I-807, 1-(6-(1-(3-(1H-1,2,3-triazol-1-yl)propanoyl)-1,2,5,6-tetrahydropyridin-3-yl)-7-fluoro-2-(4-(3-methoxypyridin-2-yl)piperazine-1-carbonyl)-1H-indol-4-yl)pyridin-2(1H)-one] cannot be ordered by IC50: < 100 nM for the first, < 100 nM for the second.

COc1ccccc1-c1cc(C2=CCCN(C(=O)CCn3ccnn3)C2)c(F)c2[nH]c(C(=O)N3CCN(c4cc(C)c(=O)n(C)c4)CC3)cc12 [Example I-1023] and COc1ccccc1-c1cc(C2=CCCN(C(=O)CCn3ccnn3)C2)c(F)c2[nH]c(C(=O)N3CCN(c4cccn(C)c4=O)CC3)cc12 [Example I-1021] cannot be ordered by IC50: < 100 nM for the first, < 100 nM for the second.

CN(C)C(=O)c1cc2c(C3CCCCC3)cc([C@H]3CCCN(C(=O)CCn4cccn4)C3)c(F)c2[nH]1 [Example I-840] and COc1ccccc1-c1cc(C2CCCN(C(=O)CCn3ccnn3)C2)c(F)c2[nH]c(C(=O)N(C)C)cc12 (centres unmarked) [Example I-1193] cannot be ordered by IC50: < 100 nM for the first, < 100 nM for the second.

COc1ccccc1-c1cc(C2=CCCN(C(=O)CCn3ccnn3)C2)c(F)c2[nH]c(C(=O)N3CCN(c4cccc(C(F)(F)F)n4)CC3)cc12 [Example I-937] and COc1ccccc1-c1cc(C2=CCCN(C(=O)CCn3ccnn3)C2)c(F)c2[nH]c(C(=O)N3CCN(c4cccc(OC(F)(F)F)n4)CC3)cc12 [Example I-430] fall in the same range of IC50: 100 to 1000 nM for the first, 100 to 1000 nM for the second.

CC(=O)N1CCC=C(c2cc(-c3ccc4cnn(C)c4c3)c3cc(C(=O)N(C)C)[nH]c3c2F)C1 [Example I-882] and CC(=O)N1CCC=C(c2cc(-c3ccc(F)cc3O)c3cc(C(=O)N(C)C)[nH]c3c2F)C1 [Example I-891] fall in the same range of IC50: 100 to 1000 nM for the first, 100 to 1000 nM for the second.

COc1cc(F)cnc1N1CCN(C(=O)c2cc3c(-c4cnc5c(C)cccc5c4)cc(C4=CCCN(C(=O)CCn5ccnn5)C4)c(F)c3[nH]2)CC1 [Example I-672] and COc1cc(F)cnc1N1CCN(C(=O)c2cc3c(-c4ccc(C(=O)N(C)C)cc4)cc(C4=CCCN(C(=O)CCn5ccnn5)C4)c(F)c3[nH]2)CC1 [Example I-1165] cannot be ordered by IC50: < 100 nM for the first, < 100 nM for the second.

COc1ccccc1-c1cc(C2=CCCN(C(=O)CCn3ccnn3)C2)c(F)c2[nH]c(C(=O)N3CCN(c4ncc(N5CCCCC5)cc4OC4CC4)CC3)cc12 [Example I-961] and O=C(CCn1ccnn1)N1CCC=C(c2cc(-c3ccccc3F)c3cc(C(=O)N4CCN(c5ncccc5OC5CC5)CC4)[nH]c3c2F)C1 [Example I-343] cannot be ordered by IC50: < 100 nM for the first, < 100 nM for the second.

COc1ccncc1-c1cc(C2=CCCN(C(=O)CCn3ccnn3)C2)c(F)c2[nH]c(C(=O)N3CCN(c4ncc(C5CC5)cc4OC)CC3)cc12 [Example I-438] and COc1ccncc1-c1cc(C2=CCCN(C(=O)CCn3ccnn3)C2)c(F)c2[nH]c(C(=O)N3CCN(c4ncc(C(C)C)cc4OC)CC3)cc12 [Example I-454] cannot be ordered by IC50: < 100 nM for the first, < 100 nM for the second.

COc1cccc(N2CCN(C(=O)c3cc4c(-c5ccc(F)cc5OC)cc(C5=CCCN(C(=O)CCn6ccnn6)C5)c(F)c4[nH]3)CC2)n1 [Example I-589] and COc1ccccc1-c1cc(C2=CCCN(C(=O)CCn3ccnn3)C2)c(F)c2[nH]c(C(=O)N3CCN(c4ccc(=O)[nH]c4C)CC3)cc12 [Example I-1022] cannot be ordered by IC50: < 100 nM for the first, < 100 nM for the second.

CN(C)C(=O)c1cc2cc(C3=CCCN(C(=O)CCn4ccnn4)C3)cc(-c3ccc(F)cc3O)c2o1 [Example I-1074] and CN(C)C(=O)c1cc2cc(C3=CCCN(C(=O)CCn4ccnn4)C3)cc(-c3ccc4c(c3)NC(=O)C4)c2o1 [Example I-869] cannot be ordered by IC50: < 100 nM for the first, < 100 nM for the second.

First: COc1ccccc1-c1cc(C2=CCCN(C(=O)CCn3ccnn3)C2)c(F)c2[nH]c(C(=O)N3Cc4cccc(F)c4C3)cc12 [Example I-982]
Second: COc1ccccc1-c1cc(C2=CCCN(C(=O)CCn3ccnn3)C2)c(F)c2[nH]c(C(=O)N3CCc4nocc4C3)cc12 [Example I-1029]
The IC50 of the first is higher: > 100000 nM for the first, < 100 nM for the second. The second is the more potent here.

First: COc1ccccc1-c1cc(C2=CCCN(C(=O)CCn3ccnn3)C2)c(F)c2[nH]c(C(=O)N3CCN(c4c(C)nn(C)c4C#N)CC3)cc12 [Example I-775]
Second: COc1ccccc1-c1cc(C2=CCCN(C(=O)CCn3ccnn3)C2)c(F)c2[nH]c(C(=O)N3CCN(c4cc5cc[nH]c5nc4C#N)CC3)cc12 [Example I-401]
The IC50 of the first is lower: < 100 nM for the first, > 100000 nM for the second.

First: COc1ccccc1-c1cc(C2=CCCN(C(=O)CCn3ccnn3)C2)c(F)c2[nH]c(C(=O)N(C)C3Cc4ccccc4C3)cc12 [Example I-978]
Second: COc1ccccc1-c1cc(C2=CCCN(C(=O)CCn3ccnn3)C2)c(F)c2[nH]c(C(=O)N3CCN(c4nccc5ccccc45)CC3)cc12 [Example I-363]
The IC50 of the first is higher: 100 to 1000 nM for the first, < 100 nM for the second.

Compared with CCc1ccc(-c2cc(C(=O)N3Cc4cnn(CC)c4C3)cc3cc(C4=CCCN(C(C)=O)C4)n(CC4CC4)c23)c(C)n1 [Example I-1046], COc1ncccc1-c1cc(C(=O)N2Cc3cnn(C)c3C2)cc2cc(C3=CCCN(C(=O)CC(=O)O)C3)n(CC3CC3)c12 [Example I-791] is lower in IC50: 100 to 1000 nM for the first, < 100 nM for the second. The second is the more potent here.

Compared with COc1ccncc1-c1cc(C2=CCCN(C(=O)CCc3nccs3)C2)c(F)c2[nH]c(C(=O)N3CCN(c4ncccc4OC)CC3)cc12 [Example I-497], COc1ccncc1-c1cc(C2=CCCN(C(=O)CCn3ccnn3)C2)c(F)c2[nH]c(C(=O)N3CCN(c4ncc(C(F)(F)F)cc4OC)CC3)cc12 [Example I-445] is lower in IC50: 10000 to 100000 nM for the first, < 100 nM for the second. The second is the more potent here.

First: CNc1ccc(-c2cc([C@@H]3CCCN(C(=O)CCn4ccnn4)C3)cc3[nH]c(C(=O)N(C)C)cc23)c(OC)c1 (single isomer, unassigned) [Example I-1191]
Second: CN(C)C(=O)c1cc2cc(C3=CCCN(C(=O)CCn4ccnn4)C3)cc(NCc3cccc4ncccc34)c2o1 [Example I-871]
The IC50 of the first is higher: 1000 to 10000 nM for the first, < 100 nM for the second.

CCC1=C(c2cc(C3=CCCN(C(=O)CCn4ccnn4)C3)c(F)c3[nH]c(C(=O)N4CCN(c5ncc(F)cc5OC)CC4)cc23)CN(C)CC1 [Example I-730] and CCC/C=C/c1cc(C2=CCCN(C(=O)CCn3ccnn3)C2)c(F)c2[nH]c(C(=O)N3CCN(c4ncc(F)cc4OC)CC3)cc12 [Example I-677] cannot be ordered by IC50: < 100 nM for the first, < 100 nM for the second.

CCc1cc(C)ncc1-c1cc(C2=CCCN(C(=O)CC(=O)O)C2)c(F)c2[nH]c(C(=O)N3Cc4cnn(CC)c4C3)cc12 [Example I-788] and CC(=O)N1CCC=C(c2cc(-c3cccc4c3OCCO4)c3cc(C(=O)N(C)C)[nH]c3c2F)C1 [Example I-1095] cannot be ordered by IC50: < 100 nM for the first, < 100 nM for the second.

First: COc1ccncc1-c1cc(C2=CCCN(C(=O)CCn3ccnn3)C2)c(F)c2[nH]c(C(=O)N3CCN(c4ccc(C(F)(F)F)cc4OC)CC3)cc12 [Example I-463]
Second: CN(C)C(=O)c1cc2c(F)c(C3=CCCN(C(=O)[C@@H]4Cc5ccccc5CN4C=O)C3)ccc2o1 (single isomer, unassigned) [Example I-375]
The IC50 of the first is lower: < 100 nM for the first, 100 to 1000 nM for the second. The first is the more potent here.
